Reference: US12298319B2, “Method for measuring alpha value of muscarinic M1 receptor positive allosteric modulators” (Takeda Pharmaceutical Company Limited, priority 2017, dated 2025)
Like-named read-outs stand apart in the source and are kept apart here.

Columns and labels:
isolated mouse ileum = assay: In vitro Magnus assay, EFS-induced ileum contraction; conditions: for Ileum contraction at 1 μM (% of cont.) Mean: isolated mouse ileum with EFS
Description: After overnight fasting, mice were sacrificed by decapitation. The ileum was quickly dissected out and suspended in ice-cold Krebs solution with the following composition (in mM): NaCl, 120.7; KCl, 5.9; CaCl2, 2.5; MgCl2, 1.2; […], 15.5; NaH2PO4, 1.2; and glucose, 11.5. Longitudinal segments of ileum (10-15 mm long) were detached of mesentery and adipose tissue, and mounted in organ baths containing 10 mL of Krebs solution aerated with 95% O2/5% CO2. Bath temperature was maintained at 37° C. The isolated ileum was given a passive load of 0.5 g. The contractile response of the isolated ileum was continuously recorded with isometric transducer (MLT050/A, ADInstruments, New South Wales, Australia) and recorder (PowerLab 8/30 ML870 and Octal Bridge Amp ML228, ADInstruments).
Platinum electrodes (3-20 mm apart, Iwashiya Kishimoto Medical Instruments, Kyoto, Japan) were mounted on both sides of the isolated ileum. The electrodes were connected to an electric stimulator (SEG-3104, Nihon Kohden, Tokyo, Japan) and an amplifier (SIG-3140, Nihon Kohden) for EFS with square wave pulses (20 V over the electrodes, 50 ms duration, and 20 Hz frequency); pulse trains were lasting for 10 s with 20 s pause.
The EFS produced sustained tonic contraction, followed by relaxation. The contraction was measured as the maximum strength from the baseline. The effects of experimental substances on the maximum contraction were measured. At the beginning of each experiment, a series of control EFS cycles was tested for more than 1 h to observe stability of contractile response. The ileum with a steady contractile response elicited by control EFS during the 1 h was used to investigate the effect of test compounds.
After responses to control EFS reached a steady-state, the compounds were added to the Magnus bath cumulatively, without washing between the subsequent doses. The interval between two adjacent doses was always at least 5 min, thus the isolated preparations receive at least 10 pulses in each dose of the compounds. After cumulating all doses of compounds, the bath was washed three times, and the ilea were allowed to rest for further 30 min. The effect of each concentration of the compounds on ileum contraction induced by EFS was calculated from the average value of 10 responses of the maximum strength. Then the ileum contractile response was expressed as a ratio (%) of the mean maximum contraction to that obtained with the pre-treated DMSO (solvent) to obtain concentration-response curve. Due to very small size of relaxations, the effects of the compounds on them was not be analyzed.

mice = assay: Assessment of diarrhea in mice; type: in vivo, mouse; conditions: for diarrhea induction: mice
Description: FIG. 1 depicts diarrhea induction by Compound C treatment in WT and M1R KO mice (hereinafter sometimes to be indicated as “MIKO mouse” in the present DESCRIPTION) (Example 11). […] The maximum score during the observation was adopted.
On the day of the experiment, mice were randomly divided into four groups (n=6-9). […] Each mouse was treated with either vehicle (10 or 20 mL/kg) or a single dose of each compound, including Compound A (3, 10 or 30 mg/kg p.o.), Compound B (10, 30, 100, 300 or 1,000 mg/kg p.o.) or Compound C (10 mg/kg p.o.). The animals were monitored, and scored the severity of diarrhea at 0.5, 1, 2, 4 and 6 h after administration. […] The highest score during the observation was adopted.

human M1Rs = target: T1, human M1Rs (Homo sapiens, UniProt P11229); assay: Ca2+ flux assay in CHO-K1 cells stably expressing human M1R (FLIPR), agonist and PAM mode, operational model fit; type: cell-based; conditions: for log β Mean: allosteric effect of PAM on signaling efficacy of ACh; for log β Mean / Log TB Mean: operational model; for EC50: mean of three independent experiments; for Log TB Mean: intrinsic agonistic efficacy
T1 sequence (P11229 1-460): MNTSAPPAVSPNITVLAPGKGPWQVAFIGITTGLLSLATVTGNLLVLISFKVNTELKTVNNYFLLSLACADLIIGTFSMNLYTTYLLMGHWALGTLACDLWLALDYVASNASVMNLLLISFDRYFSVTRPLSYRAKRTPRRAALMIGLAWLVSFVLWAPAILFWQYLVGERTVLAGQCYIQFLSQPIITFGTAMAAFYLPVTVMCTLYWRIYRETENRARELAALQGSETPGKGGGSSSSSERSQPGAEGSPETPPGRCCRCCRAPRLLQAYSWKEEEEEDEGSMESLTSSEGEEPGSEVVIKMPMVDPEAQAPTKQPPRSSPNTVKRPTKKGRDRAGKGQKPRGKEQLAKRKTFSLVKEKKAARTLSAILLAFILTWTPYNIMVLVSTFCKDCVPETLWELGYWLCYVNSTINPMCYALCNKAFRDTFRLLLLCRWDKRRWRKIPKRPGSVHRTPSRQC
Description: Chinese hamster ovary (CHO-K1) cells stably expressing human M1Rs (hM1R-CHO) were plated in black-walled clear-bottomed 384-well plates (5,000 cells/well) and cultured overnight at 37° C. in the presence of 5% CO2 in Ham's F-12 medium supplemented with 10% FBS and 100 U/mL penicillin-streptomycin. The following day, the medium was removed and incubated with assay buffer (Hank's balanced salt solution with 20 mM HEPES, 0.1% fatty acid free BSA) containing 2.5 μg/mL Fluo-4 AM and 1.25 mM probenecid for 30 min at 37° C. in the presence of 5% CO2. After 30 min incubation at room temperature, cells were stimulated with compounds. In this experiment, ACh and each PAM were added to the cells simultaneously. Calcium flux was measured using a fluorescence imaging plate reader (FLIPR) tetra system (Molecular Devices, Sunnyvale, CA).
[formula] the pharmacological effect and Emax denotes the maximum possible effect; [A] and [B] are the concentrations of ACh and PAM, respectively; KA and KB denote the equilibrium dissociation constants of ACh and PAM, respectively; τA and τB represent the operational measures of ACh and PAM efficacy, respectively; a is the binding cooperativity between ACh and PAM (activity to enhance ACh affinity to M1R); β is the magnitude of the allosteric effect of PAM on the signaling efficacy of ACh; n denotes the slope factor. For the analysis of functional data, the equilibrium dissociation constant of each PAM and the cooperativity between ACh and each PAM were fixed to those determined from the binding experiments.
EC50, eliciting 50% of the maximal response of an endogenous ligand, ACh, reflects the agonistic activity for M1R under conditions without ACh. […] Results of the in vitro functional parameters for M1R represent the mean and S.E.M. of three independent experiments. N/A stands for “not available”. PAM means positive allosteric modulator (Table 1).

[1] = inflection point in the presence of EC20 ACh, read-out: M1PAM activity pIP Mean (converted)
[2] = without ACh, read-out: M1 agonist activity pEC50 Mean (converted)

| SMILES | augmentation of EFS-induced ileum contraction (isolated mouse ileum; 0.1 nM-1 μM) | Ileum contraction at 1 μM (% of cont.) Mean (isolated mouse ileum) | augmentation of EFS-induced ileum contraction with telenzepine (isolated mouse ileum; with 1 nM of telenzepine) | diarrhea induction (mice; 10 and 30 mg/kg p.o.) | log β Mean (human M1Rs) | EC50 (human M1Rs; [1]) [nM] | Log TB Mean (human M1Rs) | EC50 (human M1Rs; [2]) [nM] | effect on EFS-induced ileum contraction (isolated mouse ileum; up to 1 μM) | diarrhea induction (mice; up to 1000 mg/kg p.o.) | diarrhea induction in M1R KO mice (mice; 10 mg/kg p.o., M1R KO mice) | diarrhea induction in WT mice (mice; 10 mg/kg p.o., WT mice) |
| --- | --- | --- | --- | --- | --- | --- | --- | --- | --- | --- | --- | --- |
| Cn1ccc(-c2ccc(CN3Cc4cccc(O[C@H]5CCCC[C@@H]5O)c4C3=O)cc2)n1 [Compound A, 7-(((1S,2S)-2-hydroxycyclohexyl)oxy)-2-(4-(1-methyl-1H-pyrazol-3-yl)benzyl)isoindolin-1-one] | concentration-dependent augmentation | 116 % of cont. | suppressed | caused severe diarrhea | 0.13 | 10.2 | 2.06 | 72.4 | – | – | – | – |
| Cn1cc(-c2ccc(CN3Cc4cccc(Oc5c(F)cccc5C#N)c4C3=O)cc2)cn1 [Compound B, 3-fluoro-2-((2-(4-(1-methyl-1H-pyrazol-4-yl)benzyl)-3-oxo-2,3-dihydro-1H-isoindol-4-yl)oxy)benzonitrile] | – | 97 % of cont. | – | – | 0.58 | 40.7 | −0.10 | 676 | no effect | did not induce severe diarrhea | – | – |
| Cn1cc(-c2ccc(Cc3cc4c(=O)n([C@H]5CCCC[C@@H]5O)cnc4c4ccccc34)cn2)cn1 [Compound C, 3-((1S,2S)-2-hydroxycyclohexyl)-6-((6-(1-methyl-1H-pyrazol-4-yl)pyridin-3-yl)methyl)benzo[h]quinazoline-4(3H)-one, reference compound] | – | 104 % of cont. | – | – | −0.39 | 2.09 | 1.49 | 1.62 | – | – | not in M1R KO mice | induced diarrhea |
| O=c1c2cn(Cc3ccc(-n4cccn4)cc3)c3ccccc3c-2nn1-c1ccccc1F [Compound E, 2-(2-fluorophenyl)-5-(4-(1H-pyrazol-1-yl)benzyl)-2,5-dihydro-3H-pyrazolo[4,3-c]quinolin-3-one, reference compound] | – | 106 % of cont. | – | – | −0.23 | 8.51 | 0.65 | 219 | – | – | – | – |
| Cn1cc(-c2ccc(CN3Cc4cccc(OCCN5CCCCC5)c4C3=O)cc2)cn1 [Compound F, 2-(4-(1-methyl-1H-pyrazol-4-yl)benzyl)-7-(2-(piperidin-1-yl)ethoxy)isoindolin-1-one] | – | 102 % of cont. | – | – | 0.87 | 79.4 | 0.15 | 2090 | – | – | – | – |
| Cn1cc(-c2ccc(CN3Cc4cccc(-c5ccn[nH]5)c4C3=O)cc2)cn1 [Compound G, 2-(4-(1-methyl-1H-pyrazol-4-yl)benzyl)-7-(1H-pyrazol-5-yl)isoindolin-1-one] | – | 93 % of cont. | – | – | 0.85 | 275 | – | > 10000 | – | – | – | – |
